Experimental data: article PMC4226674, “A phase I trial of the HIV protease inhibitor nelfinavir in adults with solid tumors” (Oncotarget, 2014)
Several values for one entry are separate records, joined by “and”; a condition that tells them apart may be missing. Identical values can stand only once.

Key:
[1] = tested on: advanced refractory solid tumors; experiment: Tumor response by RECIST and duration of therapy
Method: Physical examinations, toxicity assessments and laboratory analyses were conducted weekly during cycle 1 and then every three weeks beginning cycle 2. An electrocardiogram was performed every cycle, and restaging scans were performed at baseline and every two cycles thereafter. Subjects remained on study until disease progression (as determined by RECIST), severe toxicity, or individual choice.
Tumor response was assessed according to Response Evaluation Criteria in Solid Tumors (RECIST) [34] every two cycles.

[2] = tested on: P-AKT S473, P-EIF2 alpha S51, ATF3, CHOP in PBMCs; experiment: Surrogate biomarkers in PBMCs by immunoblotting; type: in vivo, human
Method: Blood was collected in Vacutainer CPT collection tubes with sodium heparin (BD Biosciences cat# 362753) and mononuclear cells were isolated as per the manufacturer's instructions. PBMCs were washed with PBS and lysed in 2X LSB buffer, aliquotted and stored at -80°C. For analysis, equal amounts of protein per sample were run on 10-12% SDS-PAGE gels, then transferred onto nitrocellulose membranes. Membranes were blocked in 5% milk in TBS + 0.1% tween (TBST) and incubated with primary antibody diluted in 5% BSA in TBST at 4 degrees overnight. The next day membranes were washed, incubated with HRP-linked secondary antibody and developed using ECL chemiluminescent reagent (GE Healthcare) and X-ray film as per the manufacturers instructions. […] Antibodies to CHOP sc-7351 and ATF3 sc-188 were from Santa Cruz Biotechnology (Santa Cruz, CA).

CYP3A4 = biological target: T1, CYP3A4 (Homo sapiens, UniProt P08684); experiment: CYP3A4 phenotyping with oral midazolam before and at nelfinavir steady state; type: in vivo
T1 construct: To determine CYP3A4 phenotype, a single 3 mg oral dose of midazolam hydrochloride, a CYP3A4 substrate, was administered; from tissue; host or cells: in vivo, the patients' own (hepatic/intestinal) enzyme
T1 sequence (P08684 whole entry): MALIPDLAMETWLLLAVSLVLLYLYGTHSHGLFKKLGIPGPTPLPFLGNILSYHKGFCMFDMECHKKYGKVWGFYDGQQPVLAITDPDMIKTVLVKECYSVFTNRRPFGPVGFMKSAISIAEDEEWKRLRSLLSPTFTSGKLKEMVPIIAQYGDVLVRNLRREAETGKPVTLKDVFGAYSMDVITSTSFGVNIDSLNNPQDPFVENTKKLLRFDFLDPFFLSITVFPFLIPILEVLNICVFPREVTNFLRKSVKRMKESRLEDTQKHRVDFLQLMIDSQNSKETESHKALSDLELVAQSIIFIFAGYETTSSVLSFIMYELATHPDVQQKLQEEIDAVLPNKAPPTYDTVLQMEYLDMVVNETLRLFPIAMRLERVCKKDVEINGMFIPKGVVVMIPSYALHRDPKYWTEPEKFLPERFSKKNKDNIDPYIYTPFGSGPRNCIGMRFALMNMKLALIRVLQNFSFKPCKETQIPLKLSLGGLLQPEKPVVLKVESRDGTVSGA
Method: To determine CYP3A4 phenotype, a single 3 mg oral dose of midazolam hydrochloride, a CYP3A4 substrate, was administered at day -2 (2 days prior to commencing nelfinavir) and again at steady state (cycle 1 day 20). Serial venous blood samples were collected at 15, 30, 60, 120, 180, 240, and 300 minutes following administration of midazolam. […] Plasma concentrations of midazolam and nelfinavir were determined with a validated assay employing high performance liquid chromatography (HPLC) with mass spectrometric detection. Noncompartmental pharmacokinetic analyses were performed with WinNonlin 5.2 (Pharsight). Individual concentration-time profiles were constructed for each patient, course and drug resulting in four profiles per patient (two each for midazolam and nelfinavir). The maximum plasma concentration (Cmax) and the time of maximum plasma concentration (Tmax) were the observed values. Drug exposure was estimated using the area under the concentration-time curve (AUC). The area under the concentration-time curve (AUC) from time zero to the time of the final quantifiable sample (AUClast) was calculated using the linear trapezoidal method. The area under the concentration-time curve from time zero to infinity (AUCinf) was calculated by extrapolation, using the terminal rate constant from the last measurable concentration.

Cc1c(O)cccc1C(=O)N[C@@H](CSc1ccccc1)[C@H](O)CN1C[C@H]2CCCC[C@H]2C[C@H]1C(=O)NC(C)(C)C [nelfinavir, Nelfinavir]
time on study, two of the subjects with NET of the midgut ([1]; 3125 mg BID): at least 8 months
subjects remaining on study for 8 months or more ([1]; 3125 mg BID MTD, progressed prior to study entry (four subjects)): 36%
ORR (confirmed partial response) at the MTD ([1]; 3125 mg bid expansion cohort, 11 evaluable subjects): 9% and 9.1%
ORR in the overall population ([1]; 21 evaluable subjects, all dose levels): 4.8%
minor responses in subjects with neuroendocrine tumors ([1]; NET of the midgut or pancreatic origin, MTD): two
subjects with stable disease for more than 6 months ([1]; expansion cohort at the MTD): Thirty-six
levels of circulating chromogranin, synaptophysin, and/or urinary 5-HIAA ([1]; responders with NET and carcinoid syndrome): transient decreases
time to improvement of carcinoid syndrome symptoms (flushing and diarrhea) ([1]; responders with NET that had carcinoid syndrome): ≤ 7 days
Duration of therapy ([1]; subject 1, SCLC, 1250 mg BID): 1.4 mos.
Duration of therapy ([1]; subject 3, SCLC, 1250 mg BID): 1.4 mos.
Duration of therapy ([1]; subject 4, SCLC, 1250 mg BID): 1.4 mos.
Duration of therapy ([1]; subject 5, Anaplastic Thyroid, 1875 mg BID): 1.4 mos.
Duration of therapy ([1]; subject 7, Differentiated Thyroid, 1875 mg BID): 2.8 mos.
Duration of therapy ([1]; subject 8, NSCLC, 1875 mg BID): 3.5 mos.
Duration of therapy ([1]; subject 9, Colorectal, 2500 mg BID): 1.4 mos.
Duration of therapy ([1]; subject 10, Pancreatic Adenocarcinoma, 2500 mg BID): 2.8 mos.
Duration of therapy ([1]; subject 11, NSCLC, 2500 mg BID): 4.1 mos.
Duration of therapy ([1]; subject 12, Differentiated thyroid, 3125 mg BID): 2.1 mos.
Duration of therapy ([1]; subject 14, Renal Cell Cancer, 3125 mg BID): 1.4 mos.
Duration of therapy ([1]; subject 17, Adenoid Cystic, 3125 mg BID): 11 mos. and 11.0 mos.
Duration of therapy ([1]; subject 18, Neuroendocrine tumor, 3125 mg BID): 8.3 mos.
Duration of therapy ([1]; subject 19, Colorectal, 3125 mg BID): 4.1 mos.
Duration of therapy ([1]; subject 21, Adenoid Cystic, 3750 mg BID): 1.4 mos.
Duration of therapy ([1]; subject 23, Prostate, 3125 mg BID): 1.0 mos.
Duration of therapy ([1]; subject 24, SCLC, 3125 mg BID): 2.8 mos.
Duration of therapy ([1]; subject 25, Colorectal, 3125 mg BID): 2.8 mos.
Duration of therapy ([1]; subject 26, Neuroendocrine tumor, 3125 mg BID): 12.4 mos.
Duration of therapy ([1]; subject 27, Neuroendocrine tumor, 3125 mg BID): 3.5 mos.
Duration of therapy ([1]; subject 28, Neuroendocrine tumor (midgut, carcinoid syndrome), 3125 mg BID): 23.5 mos.
additional time on nelfinavir off study with stable disease ([1]; subject that achieved a PR, NET of the midgut): six
biomarker changes in PBMCs from baseline ([2]; DL1 or DL2 (1250, 1875 mg bid)): no biomarker changes
subjects with decrease in P-AKT S473 or increase in EIF2 alpha S51 phosphorylation ([2]; DL3 (2500 mg bid)): 1 out of 3
subjects showing changes in 3 of 4 biomarkers evaluated ([2]; DL4 (3125 mg bid)): 3
effect on markers of ER stress in peripheral blood mononuclear cells ([2]; in vivo): induced markers of ER stress
change in midazolam clearance (CYP3A4; day 20 (nelfinavir steady state) vs pre-nelfinavir (D-2), 3 mg oral midazolam, 19 subjects, p<0.001): significant decrease
change in midazolam exposure and half-life (CYP3A4; day 20 vs pre-nelfinavir, p<0.05 for each, data not shown): significant increase
